Test [1] deals with platelet aggregation induced by PAF. Briefly: Inhibition of platelet aggregation induced by PAF (platelet rich plasma, Born nephelometric technique). Type of test: cell-based, New Zealand albino rabbits. Particulars: rabbit platelet rich plasma, PAF C₁₈ 16 nM final, concentration needed to inhibit platelet aggregation in a 50%, read-out: IC₅₀. On the procedure: Inhibition of platelet aggregation induced by PAF.
The blood is obtained by cardiac puncture of male New Zealand albino rabbits (between 2 and 2.5 Kg of weight) and coagulation is prevented by adding 1 part of 3.16% sodium citrate dihydrate in 9 parts of blood. The platelet rich plasma (PRP) is prepared by blood centrifugation at 250xg for 10 min. at 4°C and it is diluted with platelet poor plasma (PPP) obtained by additional centrifugation at 3000xg for 10 min. The amount of platelets is adjusted to […]. The platelet aggregation induced by PAF (C₁₈, prepared in our laboratory) (16 nM, final) is determined by the Born nephelometric technique (J. Physiol., 1962, 162, 67) using an aggregometer Chrono-log 500. The activities of the inhibitors are expressed as IC₅₀ values, that is to say the concentration of the drug needed to inhibit the platelet aggregation in a 50%.

Test [2] concerns hypotension induced by PAF. Briefly: Inhibition of the hypotensive effect induced by PAF in normotense rats. Type of test: in vivo, Sprage Dawley rats. The following applies: for ED50: Rattus norvegicus, iv, read-out: ID₅₀. As for the experimental part: Inhibition of the hypotensive effect induced by PAF in normotense rats.
Male Sprage Dawley rats, of 180-220 g of weight, anesthetized with sodium pentobarbital (50 mg/Kg, i.p. 1 mL/100 g) have been used. In order to measure the average arterial pressure, a polyethylene catheter is introduced into the carotid artery. The arterial pressure is recorded with the help of a transducer connected with a R611 Beckman polygraph. The tested compounds are administered through the femoral vein 3 min. before the injection of PAF (0.5 mcg/Kg, i.v.) . The inhibition of the hypotension induced by PAF of the different compounds is expressed as ID₅₀, that is to say, the amount of compound by weight of animal (dose) needed to inhibit the hypotension induced by PAF in a 50%.

A further test relates to mortality induced by PAF. As to the kind of experiment: Mortality induced by PAF in mice (p.o.). Type of test: in vivo, Swiss mice. The following applies: Mus musculus, oral administration 1 h before 100 mcg/kg PAF-C₁₈ + 1 mg/kg propanolol i.v., examined 2 h after PAF, dose inhibiting mortality in a 50%, read-out: ID₅₀. On the procedure: Mortality induced by PAF in mice (p.o.).
This test was performed according to the procedure described by Young et al. (Prostaglandins, 1985, 30, 545-551). Groups of 10 Swiss mice weighing from 22 to 26 g were used. 100 mcg/kg of PAF-C₁₈ and 1 mg/kg of propanolol were administered through a lateral tail vein 1 h after the oral administration of the compounds to be tested (20 mL/kg). Animals were examined 2 h after the injection of PAF. The percentage of the inhibition of the mortality induced by PAF was determined for all the tested compounds in comparison with the control group. The results are expressed as ID₅₀ values, that is to say, the amount of compound by weight of animal (dose) needed to inhibit the mortality induced by PAF in a 50%.

The mark [3] stands for this setting: anesthetized male rats, compound via femoral vein 3 min before PAF (0.5 mcg/Kg, i.v.), dose inhibiting PAF hypotension in a 50%.

Like-named read-outs stand apart in the source and are kept apart here.

We go through 24 compounds from EP0528172A1, “(2-Alkyl-3-pyridyl)methylpiperazine derivatives as PAF antagonists” (J. URIACH & CIA. S.A., priority 1991, dated 1993).

For `Cc1ncccc1C(C#N)N1CCN(C(=O)CC(c2ccccc2)c2ccccc2)CC1.Cl.Cl` (stereo not drawn) [Compound 1, 1-(3,3-Diphenylpropionyl)-4-[(2-methyl-3-pyridyl)cyanomethyl]piperazine, dihydrochloride], in test [1] (Oryctolagus cuniculus), the IC50 is 18 nM. Also, the ED50 in test [2] (setting [3]) was determined as 0.015 mg/kg.

In the case of `Cc1ncccc1C(C#N)N1CCN(C(=O)CC(O)(c2ccccc2)c2ccccc2)CC1` (stereo not drawn) [Compound 4, 1-(3,3-Diphenyl-3-hydroxypropionyl)-4-[(2-methyl-3-pyridyl)cyanomethyl]piperazine], the figures for the ED50 (with mortality induced by PAF; in test [2] (setting [3])) were 0.69 mg/kg and 0.039 mg/kg, respectively. Besides, in test [1] (Oryctolagus cuniculus), the IC50 worked out at 17 nM.

With `Cc1ncccc1C(C#N)N1CCN(C(=O)C=C(c2ccccc2)c2ccccc2)CC1` (stereo not drawn) [Compound 5, 1-(3,3-Diphenylpropenoyl)-4-[(2-methyl-3-pyridyl)cyanomethyl]piperazine], in test [1] (Oryctolagus cuniculus), the IC50 stood at 26 nM. Further, the ED50 in test [2] (setting [3]) is 0.038 mg/kg.

Turning to `Cc1ncccc1C(C#N)N1CCN(C(=O)CC(C)(O)c2ccccc2)CC1` (stereo not drawn) [Compound 9, 1-(3-Phenyl-3-hydroxybutanoyl)-4-[(2-methyl-3-pyridyl)cyanomethyl]piperazine], in test [1] (Oryctolagus cuniculus), the IC50 came out at 36 nM.

For the compound `Cc1ncccc1C(C#N)N1CCN(C(=O)CC(O)(c2ccccc2)C(F)(F)F)CC1` (stereo not drawn) [Compound 11, 1-(3-Phenyl-3-hydroxy-3-(trifluoromethyl)propionyl)-4-[(2-methyl-3-pyridyl)cyanomethyl]piperazine], the ED50 in the test with mortality induced by PAF came out at 0.44 mg/kg; in test [2] (setting [3]), 0.013 mg/kg. The IC50 in test [1] (Oryctolagus cuniculus) was determined as 14 nM.

Turning to `Cc1ncccc1C(C#N)N1CCN(C(=O)CC(NCc2ccccc2)c2ccccc2)CC1` (stereo not drawn) [Compound 15, 1-[3-(N-Benzylamino)-3-phenylpropionyl]-4-[(2-methyl-3-pyridyl)cyanomethyl]piperazine], the ED50 with mortality induced by PAF is 1.2 mg/kg; in test [2] (setting [3]), 0.035 mg/kg. Also, the IC50 in test [1] (Oryctolagus cuniculus) amounted to 9.1 nM.

For the compound `Cc1ncccc1C(C#N)N1CCN(C(=O)CC(NC(=O)c2ccccc2)c2ccccc2)CC1` (stereo not drawn) [Compound 16, 1-[3-(N-Benzoylamino)-3-phenylpropionyl]-4-[(2-methyl-3-pyridyl)cyanomethyl]piperazine], the IC50 in test [1] (Oryctolagus cuniculus) was 9.1 nM. Further, the ED50 in test [2] (setting [3]) was determined as 0.056 mg/kg.

With `CC(=O)NC(CC(=O)N1CCN(C(C#N)c2cccnc2C)CC1)c1ccccc1` (stereo not drawn) [Compound 17, 1-[3-(N-acetylamino)-3-phenylpropionyl]-4-[(2-methyl-3-pyridyl)cyanomethyl]piperazine], the ED50 with mortality induced by PAF worked out at 0.09 mg/kg; in test [2] (setting [3]), 0.035 mg/kg. Also, the IC50 in test [1] (Oryctolagus cuniculus) worked out at 38 nM.

Take `Cc1ncccc1C(C#N)N1CCN(C(=O)CCC(c2ccccc2)c2ccccc2)CC1` (stereo not drawn) [Compound 18, 1-(4,4-Diphenylbutanoyl)-4-[(2-methyl-3-pyridyl)cyanomethyl]piperazine]: the IC50 in test [1] (Oryctolagus cuniculus) amounted to 80 nM. Moreover, the ED50 in test [2] (setting [3]) stood at 0.028 mg/kg.

`Cc1ncccc1C(C#N)N1CCN(C(=O)CNC(c2ccccc2)c2ccccc2)CC1` (stereo not drawn) [Compound 22, 1-[N-(Diphenylmethyl)aminoacetyl]-4-[(2-methyl-3-pyridyl)cyanomethyl]piperazine]: the ED50 in the test on mortality induced by PAF is 0.3 mg/kg; in test [2] (setting [3]), 0.021 mg/kg. Moreover, the IC50 in test [1] (Oryctolagus cuniculus) was determined as 85 nM.

As to `Cc1ncccc1C(C#N)N1CCN(C(=O)[C@H](C)NC(c2ccccc2)c2ccccc2)CC1` (stereo partly drawn) [Compound 28, 1-[(S)-2-(N-(Diphenylmethyl)amino)propionyl]-4-[(2-methyl-3-pyridyl)cyanomethyl]piperazine], the ED50 in the test with mortality induced by PAF is 1.6 mg/kg; in test [2] (setting [3]) it was 0.025 mg/kg. Moreover, the IC50 in test [1] (Oryctolagus cuniculus) was determined as 13 nM.

On to `Cc1ncccc1C(C#N)N1CCN(C(=O)CCNC(c2ccccc2)c2ccccc2)CC1` (stereo not drawn) [Compound 34, 1-[3-(N-(Diphenylmethyl)amino)propionyl]-4-[(2-methyl-3-pyridyl)cyanomethyl]piperazine], for which the ED50 in the test with mortality induced by PAF was determined as 0.62 mg/kg; in test [2] (setting [3]) it was 0.044 mg/kg. Also, in test [1] (Oryctolagus cuniculus), the IC50 is 110 nM.

Take `Cc1ncccc1C(C#N)N1CCN(C(=O)COC(c2ccccc2)c2ccccc2)CC1` (stereo not drawn) [Compound 36, 1-[(Diphenylmethoxy)acetyl]-4-[(2-methyl-3-pyridyl)cyanomethyl]piperazine]: the IC50 in test [1] (Oryctolagus cuniculus) was determined as 42 nM. Further, the ED50 in test [2] (setting [3]) stood at 0.048 mg/kg.

Consider `COC(=O)NC(CC(=O)N1CCN(C(C#N)c2cccnc2C)CC1)c1ccccc1` (stereo not drawn) [Compound 41, 1-[3-(N-(Methoxycarbonyl)amino)-3-phenylpropionyl]-4-[(2-methyl-3-pyridyl)cyanomethyl]piperazine], for which the ED50 amounted to 0.044 mg/kg in the test on mortality induced by PAF and 0.015 mg/kg in test [2] (setting [3]). In test [1] (Oryctolagus cuniculus), the IC50 is 41 nM.

With `CCOC(=O)NC(CC(=O)N1CCN(C(C#N)c2cccnc2C)CC1)c1ccccc1` (stereo not drawn) [Compound 42, 1-[3-(N-(Ethoxycarbonyl)amino)-3-phenylpropionyl]-4-[(2-methyl-3-pyridyl)cyanomethyl]piperazine], the results for the ED50 (in the test on mortality induced by PAF; in test [2] (setting [3])) were 0.23 mg/kg and 0.025 mg/kg, respectively. For the same compound, the IC50 in test [1] (Oryctolagus cuniculus) came to 14 nM.

With `Cc1ncccc1C(C#N)N1CCN(C(=O)CC(NC(=O)Oc2ccccc2)c2ccccc2)CC1` (stereo not drawn) [Compound 44, 1-[3-(N-(Phenoxycarbonyl)amino)-3-phenylpropionyl]-4-[(2-methyl-3-pyridyl)cyanomethyl]piperazine], the IC50 in test [1] (Oryctolagus cuniculus) was 16 nM. In addition, the ED50 in test [2] came to 0.036 mg/kg.

`Cc1ncccc1C(C#N)N1CCN(C(=O)CC(NC(=O)c2cccnc2)c2ccccc2)CC1` (stereo not drawn) [Compound 60, 1-[3-(N-(3-pyridylcarbonyl)amino)-3-phenylpropionyl]-4-[(2-methyl-3-pyridyl)cyanomethyl]piperazine]: the ED50 in the test with mortality induced by PAF stood at 0.41 mg/kg; in test [2] (setting [3]), 0.029 mg/kg. Further, the IC50 in test [1] (Oryctolagus cuniculus) worked out at 8.9 nM.

In the case of `Cc1ncccc1C(C#N)N1CCN(C(=O)CC(c2ccccc2)N2CCCC2=O)CC1` (stereo not drawn) [Compound 66, 1-[3-(2-oxo-1-pyrrolidinyl)-3-phenylpropionyl]-4-[(2-methyl-3-pyridyl)cyanomethyl]piperazine], the ED50 was found to be 0.13 mg/kg in the test with mortality induced by PAF and 0.026 mg/kg in test [2] (setting [3]). In addition, in test [1] (Oryctolagus cuniculus), the IC50 worked out at 29 nM.

Take `Cc1ncccc1C(C#N)N1CCN(C(=O)CC(c2ccccc2)N2CCOC2=O)CC1` (stereo not drawn) [Compound 68, 1-[3-(2-oxo-3-oxazolidinyl)-3-phenylpropionyl]-4-[(2-methyl-3-pyridyl)cyanomethyl]piperazine]: the figures for the ED50 (in the test on mortality induced by PAF; in test [2] (setting [3])) were 0.3 to 1 mg/kg and 0.029 mg/kg, respectively. Besides, the IC50 in test [1] (Oryctolagus cuniculus) is 63 nM.

Regarding `Cc1ncccc1C(C#N)N1CCN(C(=O)CC(Nc2ccccc2)c2ccccc2)CC1` (stereo not drawn) [Compound 74, 1-[3-(N-phenylamino)-3-phenylpropionyl]-4-[(2-methyl-3-pyridyl)cyanomethyl]piperazine], the figures for the ED50 (in the test with mortality induced by PAF; in test [2] (setting [3])) were 0.27 mg/kg and 0.042 mg/kg, respectively. The IC50 in test [1] (Oryctolagus cuniculus) was found to be 28 nM.

As for `CC(=O)N(O)C(CC(=O)N1CCN(C(C#N)c2cccnc2C)CC1)c1ccccc1` (stereo not drawn) [Compound 75, 1-[3-(N-acetyl-N-hydroxyamino)-3-phenylpropionyl]-4-[(2-methyl-3-pyridyl)cyanomethyl]piperazine], the ED50 amounted to 0.061 mg/kg in the test on mortality induced by PAF and 0.027 mg/kg in test [2] (setting [3]). Further, in test [1] (Oryctolagus cuniculus), the IC50 came out at 62 nM.

`Cc1ncccc1C(C#N)N1CCN(C(=O)CC(c2ccccc2)N(O)C(N)=O)CC1` (stereo not drawn) [Compound 76, 1-[3-(N-carbamoyl-N-hydroxyamino)-3-phenylpropionyl]-4-[(2-methyl-3-pyridyl)cyanomethyl]piperazine]: the IC50 in test [1] (Oryctolagus cuniculus) is 69 nM.

For the compound `CNC(=O)N(O)C(CC(=O)N1CCN(C(C#N)c2cccnc2C)CC1)c1ccccc1` (stereo not drawn) [Compound 77, 1-[3-(N-methylcarbamoyl-N-hydroxyamino)-3-phenylpropionyl]-4-[(2-methyl-3-pyridyl)cyanomethyl]piperazine], the IC50 in test [1] (Oryctolagus cuniculus) is 3000 nM. In test [2] (setting [3]), the ED50 was 0.045 mg/kg.

In the case of `Cc1ncccc1C(C#N)N1CCN(C(=O)CC(NC(=O)N(C)O)c2ccccc2)CC1` (stereo not drawn) [Compound 78, 1-[3-(N-(N'-hydroxy-N'-methylcarbamoyl)amino)-3-phenylpropionyl]-4-[(2-methyl-3-pyridyl)cyanomethyl]piperazine], the IC50 in test [1] was 82 nM. Also, the ID₅₀ in test [2] (setting [3]) stood at 0.055 mg/Kg i.v.
